Experiments:
Assay type in all cases: biochemical
[1] = target: T1, BlaMab (M. abscessus endogenous class A beta-lactamase) (Mycobacteroides abscessus, UniProt B1MCI3); experiment: TLC turnover assay with recombinant BlaMab
T1 construct: gene MAB_2875; -30 residue N-terminal truncated protein, 6x-His tagged

[2] = target: T1, BlaMab (M. abscessus endogenous class A beta-lactamase); experiment: nitrocefin hydrolysis kinetics (Ki app, k2/Ki, koff) with recombinant BlaMab; TLC penicillin V assay
[3] = target: T1, BlaMab (M. abscessus endogenous class A beta-lactamase); experiment: spectrophotometric hydrolysis at […] nm, Michaelis-Menten (Km across […] relebactam)

T1 sequence (B1MCI3 entry or part of it): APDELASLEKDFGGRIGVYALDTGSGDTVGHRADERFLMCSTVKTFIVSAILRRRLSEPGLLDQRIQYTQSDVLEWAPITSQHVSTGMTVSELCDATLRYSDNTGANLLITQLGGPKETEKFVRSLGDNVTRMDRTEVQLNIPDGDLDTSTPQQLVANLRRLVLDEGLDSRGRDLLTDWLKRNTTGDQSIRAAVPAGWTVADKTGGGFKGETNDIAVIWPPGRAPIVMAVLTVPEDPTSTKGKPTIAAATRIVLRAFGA

With `CC1(C)S[C@@H]2[C@H](NC(=O)COc3ccccc3)C(=O)N2[C@H]1C(=O)O` [PenV, penicillin V] the “TLC turnover assay with recombinant BlaMab” value [1] was “The hydrolysis of penicillin V to penicilloic acid by BlaMab resulted in a spot with reduced Rf value”.

With `O=C(NC1CCNCC1)[C@@H]1CC[C@@H]2CN1C(=O)N2OS(=O)(=O)O` [REL, relebactam] the Ki [2] was 0.184 µM.

For `O=C(Cc1cccs1)N[C@@H]1C(=O)N2C(C(=O)O)=C(/C=C/c3ccc([N+](=O)[O-])cc3[N+](=O)[O-])CS[C@H]12` [nitrocefin], the Km [3] was 69.43–16.96 µM.

— article PMC6985242, “Effect of Amoxicillin in combination with Imipenem-Relebactam against Mycobacterium abscessus” (Scientific Reports, 2020)
